In PubChem BioAssay AID1259407 (Chemical Carcinogenesis Research Information System (CCRIS), 2018):
Active and inactive are the calls of the source. How the calls were made is not given here.

System: CCRIS mutagenicity, Ames/micronucleus/aberration tests
Experiment: CCRIS mutagenicity studies
Source text: The CCRIS database contains chemical records with carcinogenicity, mutagenicity, tumor promotion, and tumor inhibition test results. It was developed by the National Cancer Institute (NCI). Data are derived from studies cited in primary journals, current awareness tools, NCI reports, and other sources. Test results have been reviewed by experts in carcinogenesis and mutagenesis.
CCRIS provides historical information from the years 1985 - 2011. It is no longer updated.
This is an archive assay for CCRIS mutagenicity studies.

SMILES: Nc1cccc2nc3ccccc3cc12
- mutagenic call (Test System: AMES SALMONELLA TYPHIMURIUM, Strain/Indicator: TA1535, Metabolic Activation: NONE, Method: PREINCUBATION): inactive; negative
- mutagenic call (Test System: AMES SALMONELLA TYPHIMURIUM, Strain/Indicator: TA1535, Metabolic Activation: RAT, LIVER, S-9, TETRACHLOROBIPHENYL, Method: PREINCUBATION): inactive; negative
- mutagenic call (Test System: AMES SALMONELLA TYPHIMURIUM, Strain/Indicator: TA1537, Metabolic Activation: NONE, Method: PREINCUBATION): active; positive
- mutagenic call (Test System: AMES SALMONELLA TYPHIMURIUM, Strain/Indicator: TA1537, Metabolic Activation: RAT, LIVER, S-9, TETRACHLOROBIPHENYL, Method: PREINCUBATION): active; positive
- mutagenic call (Test System: AMES SALMONELLA TYPHIMURIUM, Strain/Indicator: TA1538, Metabolic Activation: NONE, Method: PREINCUBATION): inactive; negative
- mutagenic call (Test System: AMES SALMONELLA TYPHIMURIUM, Strain/Indicator: TA1538, Metabolic Activation: RAT, LIVER, S-9, TETRACHLOROBIPHENYL, Method: PREINCUBATION): active; positive
- mutagenic call (Test System: AMES SALMONELLA TYPHIMURIUM, Strain/Indicator: TA1977, Metabolic Activation: NONE, Method: PREINCUBATION): active; positive
- mutagenic call (Test System: AMES SALMONELLA TYPHIMURIUM, Strain/Indicator: TA1977, Metabolic Activation: RAT, LIVER, S-9, TETRACHLOROBIPHENYL, Method: PREINCUBATION): active; positive
- mutagenic call (Test System: AMES SALMONELLA TYPHIMURIUM, Strain/Indicator: TA1978, Metabolic Activation: RAT, LIVER, S-9, TETRACHLOROBIPHENYL, Method: PREINCUBATION): inactive; negative

SMILES: CC(=O)[O-].CC(=O)[O-].CC(=O)[O-].[Cr+3]
- mutagenic call (End Point: IN VITRO MICRONUCLEUS, Test System: CHL/IU CELLS, Metabolic Activation: NONE): active; positive
- mutagenic call (Test System: UDS RAT HEPATOCYTES, Strain/Indicator: THY INCORP, Metabolic Activation: NONE, Method: AUTORADIOGRAPHY): inactive; negative

SMILES: Nc1ccn([C@@H]2O[C@H](CO)[C@@H](O)C2O)c(=O)n1 (stereo partly specified)
- mutagenic call (End Point: IN VITRO MICRONUCLEUS, Test System: CHINESE HAMSTER V79 CELLS, Metabolic Activation: NONE): active; positive
- mutagenic call (End Point: IN VITRO MICRONUCLEUS, Test System: V79 CELLS, Metabolic Activation: NONE): active; positive
- mutagenic call (End Point: In vitro chromosomal aberrations, Test System: Human lymphocytes, Metabolic Activation: None): active; positive (structural changes) (effects significant without chm)
- mutagenic call (End Point: In vitro micronucleus, Test System: Human lymphoblastoid TK6 cells, Metabolic Activation: None): active; positive (p<0.001)
- mutagenic call (Test System: AMES SALMONELLA TYPHIMURIUM, Strain/Indicator: TA98, Metabolic Activation: NONE, Method: STANDARD PLATE): inactive; negative
- mutagenic call (Test System: AMES SALMONELLA TYPHIMURIUM, Strain/Indicator: TA98, Metabolic Activation: S-9, Method: STANDARD PLATE): inactive; negative
- mutagenic call (Test System: AMES SALMONELLA TYPHIMURIUM, Strain/Indicator: TA100, Metabolic Activation: NONE, Method: STANDARD PLATE): inactive; negative
- mutagenic call (Test System: AMES SALMONELLA TYPHIMURIUM, Strain/Indicator: TA100, Metabolic Activation: S-9, Method: STANDARD PLATE): inactive; negative
- mutagenic call (Test System: AMES SALMONELLA TYPHIMURIUM, Strain/Indicator: TA102, Metabolic Activation: NONE, Method: STANDARD PLATE): inactive; negative
- mutagenic call (Test System: AMES SALMONELLA TYPHIMURIUM, Strain/Indicator: TA1537, Metabolic Activation: NONE, Method: STANDARD PLATE): inactive; negative
- mutagenic call (Test System: AMES SALMONELLA TYPHIMURIUM, Strain/Indicator: TA1537, Metabolic Activation: S-9, Method: STANDARD PLATE): inactive; negative
- mutagenic call (Test System: CHINESE HAMSTER V-79, Strain/Indicator: V-79 (HGPRT)/6-THIOGUANINE, Metabolic Activation: NONE): inactive; negative
- mutagenic call (Test System: CHINESE HAMSTER V-79, Strain/Indicator: V-79/6-THIOGUANINE, Metabolic Activation: NONE, Method: SUSPENSION/PLATE): active; positive
- mutagenic call (Test System: CHINESE HAMSTER V-79, Strain/Indicator: V-79/6-THIOGUANINE, Metabolic Activation: RAT, LIVER, HEPATOCYTES, Method: SUSPENSION/PLATE): inactive; negative
- mutagenic call (Test System: CHINESE HAMSTER V-79, Strain/Indicator: V-79/8-AZAGUANINE, Metabolic Activation: NONE, Method: STANDARD PLATE): active; positive
- mutagenic call (Test System: E. COLI, Strain/Indicator: WP2 (HCR), Metabolic Activation: NONE, Method: STANDARD PLATE): active; positive
- mutagenic call (Test System: E. COLI, Strain/Indicator: WP2 (HCR), Metabolic Activation: S-9, Method: STANDARD PLATE): active; positive
- mutagenic call (Test System: MOUSE LYMPHOMA, Strain/Indicator: L5178Y (TK+/TK-), Metabolic Activation: NONE, Method: MICROWELL): active; positive
- mutagenic call (Test System: MOUSE LYMPHOMA, Strain/Indicator: L5178Y (TK+/TK-), Metabolic Activation: NONE, Method: SUSPENSION/PLATE): active; positive
- mutagenic call (Test System: MOUSE LYMPHOMA, Strain/Indicator: L5178Y (TK+/TK-), Metabolic Activation: S-9, Method: MICROWELL): active; positive
